The assay addresses T1, Zinc finger protein GLI1 (Homo sapiens, UniProt P08151).
T1 sequence (P08151 whole entry): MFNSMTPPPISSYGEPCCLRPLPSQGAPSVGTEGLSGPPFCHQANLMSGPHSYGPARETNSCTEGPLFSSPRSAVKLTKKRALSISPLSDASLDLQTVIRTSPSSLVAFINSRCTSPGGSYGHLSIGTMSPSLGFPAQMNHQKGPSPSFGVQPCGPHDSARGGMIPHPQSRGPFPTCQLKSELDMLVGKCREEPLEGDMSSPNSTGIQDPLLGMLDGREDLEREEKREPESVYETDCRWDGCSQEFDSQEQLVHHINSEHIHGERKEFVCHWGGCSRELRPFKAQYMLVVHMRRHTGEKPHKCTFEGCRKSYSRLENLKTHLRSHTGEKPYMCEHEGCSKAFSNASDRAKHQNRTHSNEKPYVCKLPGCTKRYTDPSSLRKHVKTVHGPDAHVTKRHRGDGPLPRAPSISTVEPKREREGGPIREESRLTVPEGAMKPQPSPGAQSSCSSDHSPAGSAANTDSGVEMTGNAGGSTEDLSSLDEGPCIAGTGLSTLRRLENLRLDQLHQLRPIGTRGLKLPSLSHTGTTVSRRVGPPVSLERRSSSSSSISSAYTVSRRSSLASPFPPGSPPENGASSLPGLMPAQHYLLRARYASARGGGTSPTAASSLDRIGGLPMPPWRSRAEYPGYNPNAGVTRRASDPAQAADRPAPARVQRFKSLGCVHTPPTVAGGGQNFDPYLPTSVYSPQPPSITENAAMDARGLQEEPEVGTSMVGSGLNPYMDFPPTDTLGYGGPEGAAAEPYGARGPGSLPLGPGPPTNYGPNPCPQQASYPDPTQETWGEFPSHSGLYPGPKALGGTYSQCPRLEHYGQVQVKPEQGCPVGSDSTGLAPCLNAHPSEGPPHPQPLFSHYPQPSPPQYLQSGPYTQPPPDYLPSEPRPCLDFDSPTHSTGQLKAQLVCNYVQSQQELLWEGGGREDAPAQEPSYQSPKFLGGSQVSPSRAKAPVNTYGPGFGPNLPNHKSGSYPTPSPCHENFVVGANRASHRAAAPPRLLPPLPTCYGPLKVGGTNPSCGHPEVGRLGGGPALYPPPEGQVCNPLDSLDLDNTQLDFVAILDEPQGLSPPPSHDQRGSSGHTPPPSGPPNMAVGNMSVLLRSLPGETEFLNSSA
Kind of assay: Inhibition of GLI1-mediated transcriptional activity in human HaCaT cells by luciferase based reporter gene assay.

Broadly, the IC50 is the point on the concentration scale where inhibition reaches its midpoint.

For `C=C(C)[C@@H]1CC[C@]2(C(=O)O)CC[C@]3(C)[C@H](CC[C@@H]4[C@@]5(C)[C@@H](C(=O)O)[C@H](O)C(C)(C)[C@@H]5CC[C@]43C)[C@@H]12`, the IC50 was more than 200 µM.
As to `C=C(C)[C@@H]1CC[C@]2(C(=O)O)CC[C@]3(C)[C@H](CC[C@@H]4[C@@]5(C)[C@H](CO)[C@@H](O)C(C)(C)[C@@H]5CC[C@]43C)[C@@H]12` [ceanothanolic acid], half-maximal inhibition (IC50) required 133 µM.
